Assay results reported in US20230201221A1, “USE OF TERPENOIDS IN THE TREATMENT OR PREVENTION OF FIBROTIC DISEASES” (ARJIL BIOTECH HOLDING COMPANY LIMITED, priority 2020, published 2023).
Values joined by “and” are separate entries in the source; they are usually repeats but may differ in a detail not shown here. Equal values may be shown once.

Legend:
Assay type in all cases: in vivo
[1] = tested on: MPO; test: Bleomycin-induced pulmonary fibrosis in mice: lung myeloperoxidase (MPO) assay; conditions: compared with BLM group, p<0.001
Protocol: (§1) Mice were divided into fifth groups with 5 animals per group according to body weight: control group, BLM group, BLM+DEX group (7.5 mg/kg), BLM+ACH dosage group (50 mg/kg), and BLM+ACM dosage group (25 mg/kg), BLM+ACH dosage group (50 mg/kg), and BLM+ACM dosage group (25 mg/kg) BLM+AH dosage group (50 mg/kg), and BLM+AM dosage group (25 mg/kg) BLM+BH dosage group (50 mg/kg), and BLM+BM dosage group (25 mg/kg) BLM+CH dosage group (50 mg/kg), and BLM+CM dosage group (25 mg/kg) BLM+DH dosage group (50 mg/kg), and BLM+DM dosage group (25 mg/kg) BLM+EH dosage group (50 mg/kg), and BLM+EM dosage group (25 mg/kg) BLM. Pulmonary fibrosis (PF) was established in mice via a single intratracheal administration of BLM at 7.5 mg/kg mg/kg body weight. Different doses of samples were intragastrically administered daily for 21 days after BLM injury, and DEX was used as the positive control. Control and model groups received an equal volume of vehicle (0.9% NaCl) using the same schedule and route of administration.
The pulmonary MPO activity was a reliable index for estimating the infiltration of inflammatory cells in lungs. The lung tissues were homogenized and the MPO levels were detected with the kits according to manufacturer's instruction.

[2] = tested on: ICR mice; test: Bleomycin-induced pulmonary fibrosis in mice: lung hydroxyproline content; conditions: extract 1.0 g/kg; AH, BH, DH 50 mg/kg; p<0.001
Protocol: as §1
The contents of hydroxyproline were analyzed in lung tissue following the instruction of hydroxyproline assay kit (Biosource International Inc., Sunnyvale, Calif., USA). The pulmonary tissues of mice were ground and homogenized with 1 ml of 6 mol/L […] solution, hydrolyzed at 95° C. for 5 hours, and the pH value was adjusted to 6.0-6.8. According to the instructions, the corresponding reagents were added to the reaction system and mixed thoroughly and then incubated for 15 minutes at 60° C. After cooling, the supernatants were collected after centrifuging at 3500 rpm for 10 minutes. The absorbance value of the supernatant from the samples was measured at 550 nm by a spectrophotometer and calculated for the contents of hydroxyproline on each group.

[3] = tested on: New Zealand White rabbits; test: Hypercholesterolemic rabbit model: liver histology scores (steatosis, inflammation, fibrosis); design: key to Score of Fibrosis: 0: none; 1: mild perisinusoidal or periportal; 2: perisinusoidal and portal/periportal; 3: bridging fibrosis; 4: cirrhosis; key to Score of Steatosis Location: 0: zone 3, centrilobular; 1: zone 2, mid-zonal; 3: panacinar; conditions: individual liver slides; 0.5% cholesterol chow plus 10 mg/kg Lovastatin, 1% ARH003, 1% ARH004 or 10 mg/kg AR101-DS2; 12-week study
[4] = tested on: TNF-α, IL-1β, IL-6 and TGF-β; test: Bleomycin-induced pulmonary fibrosis in mice: pro-inflammatory cytokines by ELISA; conditions: extract 1.0 g/kg; BH, DH 50 mg/kg; after BLM challenge; p<0.001
Protocol: as §1, with “administration. […]” for “administration.”
The serum concentration of the pro-inflammatory cytokines (i.e. tumor necrosis factor-α (TNF-α), interleukin-6 (IL-6), and IL-1β) in serum were assessed with relevant enzyme-linked immunosorbent assay (ELISA) kits (Biosource International Inc., Sunnyvale, Calif., USA), based on the manufacturer's instructions.

[5] = tested on: ICR mice; test: Bleomycin-induced pulmonary fibrosis in mice: body weight, lung weight, lung index; conditions: for Pulmonary index: (lung weight/body weight)×100
Protocol: Specific pathogen-free ICR mice (males) (body weights 18-22 g) were purchased from the BioLASCO Taiwan Co., Ltd. (Taipei, Taiwan). The animals were housed in Plexiglas cages at a constant temperature of 22±1° C. and a relative humidity of 55±5% on a 12 h dark-light cycle for at least 2 weeks before the experiment. Animals were provided food and water ad libitum. All experimental procedures were performed according to the guidelines of the Institutional Animal Ethics Committee, and the protocol was approved by the Committee for the Purpose of Control and Supervision of Experiments on Animals.
as §1
Mouse body weights were recorded daily. Mice were sacrificed on the 21th day using excess chloral hydrate hydrochloride anesthesia. Blood was obtained for ELISA analyses, and whole lungs were removed and weighed. The right lungs were fixed in 10% formalin, dehydrated, and embedded in paraffin. The left lungs were used to determine hydroxyproline. The pulmonary coefficient was calculated using the following equation: lung weight/body weight×100%
1. Group I: control; 2. Group II: mice received single intraperitoneal injection of BLM (7.5 mg/kg BW) 3. Group III: single dose (ACH, 0.5 g/kg) 4. Group IV: Single dose (ACM, 1.0 g/kg) 5. […] Group VII: purified AR101-DS2 (50 mg/kg) 8. Group VIII: purified AR101-DS2 (25 mg/kg) 7. Group VII: purified AR101-DS4 (50 mg/kg) 8. Group VIII: purified AR101-DS4 (25 mg/kg) 7. […] Group VII: purified ARH013-RA1 (50 mg/kg) 8. Group VIII: purified ARH013-RA1 (25 mg/kg)

[6] = tested on: C57BL/6 mice; test: Cisplatin-induced renal injury in mice: serum CRE and BUN; conditions: extracts at 1000 mg/kg; compared to cisplatin-stimulated group, p<0.001
Protocol: Determination of biochemical parameters Serum creatinine and serum urea are assessed using colorimetric kits according to manufacturer's instructions. Kits of the former markers are purchased from (HUMAN Diagnostics Worldwide, Magdeburg, Germany) with a chemical analyzer (Roche Diagnostics, Cobas Mira Plus, Rotkreuz, Switzerland).
Seven-to-eight-week-old male C57BL/6 mice are obtained from the BioLASCO Taiwan Co., Ltd. (Taipei, Taiwan). The animals are housed in Plexiglas cages at a constant temperature of 22±1° C. and a relative humidity of 55±5% on a 12 h dark-light cycle for at least 2 weeks before the experiment. Animals are provided food and water ad libitum. All experimental procedures are performed according to the guidelines of the Institutional Animal Ethics Committee, and the protocol is approved by the Committee for the Purpose of Control and Supervision of Experiments on Animals.
Renal fibrosis is induced via multiple injections of low-dose cisplatin. Intraperitoneal injections of cisplatin (5 mg/kg/injection; P4394, Sigma-Aldrich, St Louis, Mo.) are performed at 0, 1, and 3 weeks, for a total of 3 injections. Mice are sacrificed at 6 weeks after the first dose of cisplatin (n=6). To analyze the effects of samples, mice are given daily intraperitoneal injections for 7 days, starting from 4 weeks after first dose of cisplatin, and sacrificed at […] (n=6).

[7] = 25 mg/kg intragastric daily for 21 days after BLM
[8] = 50 mg/kg intragastric daily for 21 days after BLM

Row | Molecule | lung MPO activity [1] | hydroxyproline (HP) content in lung tissue [2] | Score of Fibrosis [3] | Score of Inflammation [3] | Score of Steatosis Grade [3] | Score of Steatosis Location [3] | TNF-α, IL-1β, IL-6 and TGF-β production [4] | Final body mass [5, 7] [g] | Pulmonary mass [5, 7] [g] | Pulmonary index [5, 7] | Final body mass [5, 8] [g] | Pulmonary mass [5, 8] [g] | Pulmonary index [5, 8] | lung index, result in words ([5]; high-dose groups (ACH 1.0 g/kg; BH, DH 50 mg/kg), vs bleomycin-administered animals) | renal protection: normalization of serum CRE and BUN [6]
1 | Dehydrosulphurenic acid/Sulphurenic acid [AR101-DS2] | evidently suppressed the MPO activities | reduced lung HP | 0 | 1 (mild, 2 foci per 200 field) (2×) and 2 (moderate, 2-4 foci per 200 field) | 3 (>66%) (2×) and 1 (5-33%) | 2 and 1 and 0 | improved TNF-α, IL-1β, IL-6 and TGF-β production | 37.91 ± 0.30 | 0.48 ± 0.01 | 1.26 ± 0.03 | 39.7 ± 0.21 | 0.39 ± 0.01 | 1.01 ± 0.02 | significant decrease in the lung index | –
2 | C=C(CC[C@@H](C)[C@H]1CC[C@H]2C3=C(C(=O)C[C@]12C)[C@@]1(C)CC[C@@H](O)[C@](C)(O)[C@@H]1C[C@@H]3O)[C@@H](C)C(=O)O (racemic) [AR101-DS1, RS-Antcin K] | evidently suppressed the MPO activities | reduced lung HP | – | – | – | – | – | – | – | – | – | – | – | – | –
3 | CC[C@H](C)C(=O)O[C@H]1C[C@@H](C)C=C2C=C[C@H](C)[C@H](CC[C@@H]3C[C@@H](O)CC(=O)O3)[C@H]21 [L, Lovastatin, reference compound] | – | – | 0 (2×) and 1 | 1 (mild, 2 foci per 200 field) and 0 and 2 (moderate, 2-4 foci per 200 field) | 2 (33-66%) (2×) and 0 (low- to medium-power evaluation of parenchymal involvement <5%) | 1 (2×) and 0 | – | – | – | – | – | – | – | – | –
4 | C=C(CC[C@@H](C(=O)O)[C@H]1CC[C@@]2(C)C3=CC[C@H]4C(C)(C)[C@@H](O)CC[C@]4(C)C3=CC[C@]12C)C(C)C [AR101-DS4, Dehydroeburicoic Acid] | – | – | – | – | – | – | – | – | – | – | – | – | – | – | significant renal protection effect
